Laboratory results as given in patent US11225460B2, “Pyrrolidineamide derivatives and uses thereof” (SUNSHINE LAKE PHARMA CO., LTD., priority 2019, dated 2022).

Assays:
[1] = target: T1, Human recombinant monoamine oxidase B (Homo sapiens, UniProt P27338); assay: Inhibitory effect on the activity of monoamine oxidase B; type: biochemical; details: human recombinant MAO-B, substrate benzylamine hydrochloride
T1 construct: host or cells: Sf9 cells
T1 sequence (P27338 1-520): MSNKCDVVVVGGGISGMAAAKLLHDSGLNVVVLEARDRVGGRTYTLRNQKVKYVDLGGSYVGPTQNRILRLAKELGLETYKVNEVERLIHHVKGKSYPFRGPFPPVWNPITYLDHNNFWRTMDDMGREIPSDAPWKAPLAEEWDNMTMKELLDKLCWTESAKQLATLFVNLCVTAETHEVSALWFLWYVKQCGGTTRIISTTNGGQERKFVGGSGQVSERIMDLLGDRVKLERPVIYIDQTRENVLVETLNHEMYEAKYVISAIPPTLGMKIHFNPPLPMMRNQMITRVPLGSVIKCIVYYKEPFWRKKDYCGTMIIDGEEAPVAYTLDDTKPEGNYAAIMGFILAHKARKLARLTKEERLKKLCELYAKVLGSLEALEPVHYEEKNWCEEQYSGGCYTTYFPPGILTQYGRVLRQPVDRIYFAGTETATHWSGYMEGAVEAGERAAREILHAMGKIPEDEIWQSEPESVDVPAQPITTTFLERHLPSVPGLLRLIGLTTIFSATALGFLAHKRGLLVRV
Experimental: Human recombinant monoamine oxidase B expressed in Sf9 cells was used in the test system. In the experiment, firstly, the recombinant monoamine oxidase B was dissolved in the pre-configured HEPES buffer (0.8% NaCl, 0.037% KCl, 0.0135% Na2HPO4.2H2O, 0.1% Glucan, 0.5% HEPES, pH=7.0) at a concentration of 0.3 μg/μL. To each well of a 384-well plate was added 10 μL of monoamine oxidase B solution, and the test compound with different concentrations (the final concentration of DMSO was 1%) (10 gradient concentrations were 10 mM, 1 mM, 100 μM, 10 μM, 1 μM, 100 nM, 10 nM, 1 nM, 0.1 nM, 0.01 nM) were added into the wells respectively. The standard reference compound was R-(−)-Deprenyl, the plate was incubated at room temperature for 15 min. Then, each well filled with 10 μL substrate solution (Benzylamine hydrochloride, 1 mM) was incubated at room temperature for 60 min. Then 20 μL of fluorescein detection reagent was added to each well, which was fully blended and incubated at room temperature for 20 minutes to produce stable fluorescence signal. The fluorescence signal was read by fluorescein labeling instrument, and the value was expressed by relative light intensity (RLU). The inhibitory rate on enzyme activity was calculated according to the experimental results, the calculated formula: Inh %=(Max−Signal)/(Max−Min)*100, wherein Max was the detected value at the maximum concentration of the sample, Min was the detected value at the minimum concentration of the sample, and Signal was the detected value at the current concentration of the sample.
(§1) The standard curve was obtained through the series concentration by experimental test to calculate the IC50.

[2] = target: T2, Human recombinant monoamine oxidase A (Homo sapiens, UniProt P21397); assay: Inhibitory effect on the activity of monoamine oxidase A; type: biochemical; details: human recombinant MAO-A, substrate p-tyramine hydrochloride
T2 construct: host or cells: Sf9 cells
T2 sequence (P21397 1-527): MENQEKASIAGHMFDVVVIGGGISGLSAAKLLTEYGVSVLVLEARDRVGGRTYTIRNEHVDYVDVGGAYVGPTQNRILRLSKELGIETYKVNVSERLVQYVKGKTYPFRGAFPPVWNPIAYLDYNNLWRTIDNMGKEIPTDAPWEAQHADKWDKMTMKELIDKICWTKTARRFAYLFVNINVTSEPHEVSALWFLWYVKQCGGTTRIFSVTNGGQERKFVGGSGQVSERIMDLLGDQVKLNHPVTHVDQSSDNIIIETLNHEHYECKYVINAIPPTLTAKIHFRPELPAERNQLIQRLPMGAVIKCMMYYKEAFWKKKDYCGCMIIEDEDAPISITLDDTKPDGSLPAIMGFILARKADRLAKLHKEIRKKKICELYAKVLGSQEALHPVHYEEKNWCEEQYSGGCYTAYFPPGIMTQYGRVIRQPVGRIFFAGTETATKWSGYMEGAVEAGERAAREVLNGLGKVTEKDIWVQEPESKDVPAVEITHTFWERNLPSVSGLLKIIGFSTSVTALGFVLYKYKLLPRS
Experimental: Human recombinant monoamine oxidase A expressed in Sf9 cells was used in the test system. In the experiment, firstly, the recombinant monoamine oxidase A was dissolved in the pre-configured HEPES buffer (0.8% NaCl, 0.037% KCl, 0.0135% Na2HPO4.2H2O, 0.1% Glucan, 0.5% HEPES, pH=7.0) at a concentration of 0.3 μg/μL. To each well of a 384-well plate was added 10 μL of monoamine oxidase A solution, and the test compound with different concentrations (the final concentration of DMSO was 1%) (10 gradient concentrations were 10 mM, 1 mM, 100 μM, 10 μM, 1 μM, 100 nM, 10 nM, 1 nM, 0.1 nM, 0.01 nM) were added into the wells, respectively. The standard reference compound was Clorgyline, the plate was incubated at room temperature for 15 min. Then, each well filled with […] (p-Tyramine hydrochloride, 1 mM) was incubated at room temperature for 60 min. Then 20 μL of fluorescein detection reagent was added to each well, which was fully blended and incubated at room temperature for 20 minutes to produce stable fluorescence signal. The fluorescence signal was read by fluorescein labeling instrument, and the value was expressed by relative light intensity (RLU). The inhibitory rate on enzyme activity was calculated according to the experimental results, the calculated formula: Inh %=(Max−Signal)/(Max−Min)*100, wherein Max was the detected value at the maximum concentration of the sample, Min was the detected value at the minimum concentration of the sample, and Signal was the detected value at the current concentration of the sample.
as §1

[3] = Pharmacokinetic evaluation after intravenous or gavage administration in rats; type: in vivo, SD rats
Experimental: The LC-MS/MS system comprises Agilent 1200 series vacuum degassing furnace, quaternary pumps, well-plate autosampler, thermostatted column compartment, the API4000Qtrap Triple Quadrupole Mass Spectrometer with an electrospray ionization (ESI) source. Quantitative analysis was carried out using MRM mode. The parameters for MRM transitions are in Table 2.
Analysis was carried out on waters xbridge C18 (2.1×50 mm, […] column, 0.5 μL of sample), the analytic conditions are mobile phases cosisting of water+2 mM ammonium formate+0.1% formic acid (Phase A) and methanol+2 mM ammonium formate+0.1% formic acid (Phase B). The flow rate was 0.4 mL/min. And the gradient of Mobile phase was in Table 3.
Each animal species was divided into two groups: one was administered intravenously and the other was administered intragastrically. The compounds disclosed herein were administered in form of a solution containing 5% DMSO+5% Kolliphor HS15+90% Saline. For the group of intravenous administration, the administration dose was 1 mg/kg, and vein blood samples (0.3 ml) were collected at the time points of 0.083, 0.25, 0.5, 1.0, 2.0, 4.0, 6.0, 8.0 and 24 h after drug administration, then plasma solutions were collected by centrifuging each blood sample at 3000 rpm or 4000 rpm for 10 minutes and kept at −20° C. or −70° C. For the group of intragastric administration, the administration dose was 5 mg/kg, and vein blood samples (0.3 mL) were collected at the time points of 0.25, 0.5, 1.0, 2.0, 4.0, 6.0, 8.0 and 24 h after drug administration, then plasma solutions were collected by centrifuging each blood sample at 3000 rpm or 4000 rpm for 10 minutes and kept at −20° C. or −70° C.
20 μL of plasma was blended with 120 μl, 50 ng/ml propranolol standard water solution, then the mixture was extracted with 1.0 mL methyl tert-butyl ether (MTBE), 0.7 mL of supernatant was dried by blow with nitrogen and then dissolved again with 220 μL methanol water (methanol/water (v/v)=1/1). LC-MS/MS method was used to detect the concentration of the target compounds, and […] was used to calculate the pharmacokinetic parameters.

[4] = SD, rat, plasma, iv, i.v group, 1 mg/kg
[5] = SD, rat, plasma, po, i.g group, 5 mg/kg

Compound: C[C@H]1C[C@@H](C(N)=O)N(Cc2ccc(OCc3cccc(F)c3)cc2)C1 [Example 14, (2S,4S)-1-(4-(3-fluorobenzyloxy)benzyl)-4-methylpyrrolidine-2-formamide]
- IC50 [1]: 83 nM
- IC50 [2]: 27000 nM

Compound: C[C@H]1C[C@@H](C(N)=O)N(Cc2ccc(OCc3cccc(F)c3)cc2F)C1 [Example 15, (2S,4S)-1-(2-fluoro-4-(3-fluorobenzyloxy)benzyl)-4-methylpyrrolidine-2-formamide]
- IC50 [1]: 130 nM
- IC50 [2]: 29000 nM

Compound: NC(=O)[C@@H]1C[C@@H](F)CN1Cc1ccc(OCc2cccc(F)c2)cc1 [Example 12, (2S,4R)-4-fluoro-1-(4-(3-fluorobenzyloxy)benzyl)pyrrolidine-2-formamide]
- IC50 [1]: 720 nM
- AUC(0-inf) [3, 4]: 453 ng·h/mL
- AUC(0-t) [3, 4]: 452 ng·h/mL
- Cmax [3, 4]: 661 ng/mL
- MRT inf [3, 4]: 40 min
- Tmax [3, 4]: 4.98 min
- clearance [3, 4]: 36.8 mL/min/kg
- half-life [3, 4]: 37 min
- AUC(0-inf) [3, 5]: 1830 ng·h/mL
- AUC(0-t) [3, 5]: 1820 ng·h/mL
- Cmax [3, 5]: 1010 ng/mL
- MRT inf [3, 5]: 78.6 min
- Tmax [3, 5]: 20 min
- half-life [3, 5]: 39.1 min
- F ([3]; i.g group, 5 mg/kg): 80.7%

Compound: CC1(C)C[C@@H](C(N)=O)N(Cc2ccc(OCc3cccc(F)c3)cc2)C1 [Example 8, (S)-1-(4-(3-fluorobenzyloxy)benzyl)-4,4-dimethylpyrrolidine-2-formamide]
- IC50 [1]: 1400 nM

Compound: NC(=O)[C@@H]1CC(F)(F)CN1Cc1ccc(OCc2cccc(F)c2)cc1F [Example 11, (S)-4,4-difluoro-1-(2-fluoro-4-(3-fluorobenzyloxy)benzyl) pyrrolidine-2-formamide]
- IC50 [1]: 2200 nM

Compound: NC(=O)[C@@H]1CC(F)(F)CN1Cc1ccc(OCc2cccc(F)c2)cc1 [Example 10, (S)-4,4-difluoro-1-(4-(3-fluorobenzyloxy)benzyl)pyrrolidine-2-formamide]
- IC50 [1]: 1100 nM
